Data from article PMC10301432, “Antiplasmodial, Trypanocidal, and Genotoxicity In Vitro Assessment of New Hybrid α,α-Difluorophenylacetamide-statin Derivatives” (Pharmaceuticals, 2023).
“Also recorded” adds a separate entry of the source.

Experiments:
[1] = test system: S. typhimurium TA97, TA98, TA100, TA102 and TA104 strains; assay: Salmonella/microsome assay, overall outcome; conditions: all strains, −S9 and +S9; summarized outcome
Method: The mutagenicity reverse mutation test was carried out to investigate the potential of 13 (a–d) to induce genetic mutation in S. typhimurium TA97, TA98, TA100, TA102 and TA104 strains. The test was carried out according to the pre-incubation method, both in the absence and presence of a metabolic activation system (4% S9 mix, Aroclor-pre-induced, from Moltox Inc., Boone, NC, USA). DMSO 10% served as the negative control while known mutagens were used as the positive control substances. […] A dose-finding test was carried out with and without the metabolic activation system (S9 mix) for each tester strain.
For the assays without metabolic activation, 0.5 mL of 0.1 mol/L sodium-phosphate buffer (pH 7.4) was added, and for the assays in the presence of metabolic activation, 0.5 mL S9 mix was mixed with 0.1 mL culture medium (2 × 10^8 cells/mL) plus 0.1 mL of each compound solutions. The mixtures were incubated in a shaker at 37 °C (pre-incubation). After 30 min pre-incubation under light protection, the mixture was added to and mixed with 2 mL top agar containing 0.05 mmol/L L-histidine and D-biotin for the S. typhimurium strains. Each of these was then spread on a minimum glucose agar plate. After the top agar solidified, the plates were incubated at 37 °C for 60–72 h. Each tester strain was assayed in triplicate, and the number of revertant colonies was counted for each tester strain and treatment group [58].

in vitro [2] = format: cell-based; conditions: mouse
Method: Cardiac cell cultures were incubated for 24 h at 37 °C with different concentrations of the compounds (up to 200 µM) diluted in DMEM (without phenol red). Their morphology and spontaneous contractibility were evaluated by light microscopy and then the cellular viability was determined by the PrestoBlue® assay. For this colorimetric bioassay, PrestoBlue® (Invitrogen, Waltham, MA, USA) was added to each well (using a 10:1 medium/dye), the plate was further incubated for 24 h followed by optical density (OD) measurement performed at 570 and 600 nm, as recommended by the manufacturer.

[3] = test system: P. falciparum parasites (W2 clone) chloroquine-resistant; assay: Antiplasmodial activity, anti-HRPII assay; format: cell-based, Plasmodium falciparum
Source text: P. falciparum W2 clone was maintained in continuous culture as previously described. […] Prior to testing, the ring-stage parasites were synchronized using sorbitol.
The test quantification was read at 450 nm on a spectrophotometer (SpectraMax340PC384, Molecular Devices Sunnyvale, CA, USA), and the drug activity was expressed as the half-maximal inhibitory concentration (EC50) compared to the drug-free controls using the curve-fitting software Origin 8.0 (OriginLab Corporation, Northampton, MA, USA).

[4] = test system: Salmonella enterica serovar Typhimurium TA97; assay: Salmonella/microsome assay, TA97
Method: (§1) Salmonella enterica serovar Typhimurium (S. typhimurium) strains TA97, TA98, TA100, TA104 and TA102 from the authors’ stock were used as described in the mutagenicity assay.
(§2) To determine the cytotoxic effects, after 30 min pre-incubation, the assay mixtures were diluted in 0.9% NaCl (w/v) to obtain a suspension containing 2 × 10^2 cells/mL. […] The plates were then incubated at 37 °C for 24 h and the colonies counted. All the experiments were conducted in triplicate and were repeated at least twice. Statistical differences between the groups were analyzed by a two-way ANOVA (p < 0.05) and Tukey’s post hoc test.

[5] = test system: CHO-K1 and HepG2 cell lineages; format: cell-based
Method: Fresh HepG2 and CHO-K1 cells were seeded at the density of 1 × 10^5 cells/mL into 24-well plates (1 mL/per well). The compounds 13 (a–d) were then added to the medium to final concentrations of 500, 1000 and 2000 µM and incubation continued for 3 h or 24 h. DMSO 10% was used as the negative control, and, BaP (80 µM) for HepG2 and MMC (5 µM) for CHO-K1 were the positive controls. After exposure to the compounds, the cells were incubated for more than 24 h under growth conditions before quantification of the micronuclei and cytotoxicity. The cytogenetic studies were carried out in triplicate as described previously (see [51]). In order to determine the mitotic index and the number of cells with micronuclei, the medium was replaced by a cold methanol-glacial acetic acid (3:1) fixative for 30 min, and the cells then rinsed with distilled water for 2 min and air dried. The fixed cells were stained with 4,6-diamidino-2-phenylindole (DAPI) ([…]) dissolved in McIlvaine buffer (0.1 M citric acid plus 0.2 M Na2HPO4, pH 7.0) for 60 min, washed with McIlvaine buffer for 5 min, briefly rinsed with distilled water and mounted in glycerol. To determine the mitotic index and the number of cells with micronuclei, 1000 cells per well (3000 cells per concentration) were analyzed under a fluorescence microscope. The results for micronuclei were presented as the percentage of cells containing micronuclei in the 3000 cells/concentration group analyzed. Cells that glowed brightly and had homogenous nuclei were considered as having normal phenotypic morphology. Apoptotic nuclei were identified by the condensed chromatin at the periphery of the nuclear membrane or by fragmented nuclear body morphology. […] Once again, 3000 cells were counted and the percentage of viable cells was evaluated, discounting apoptotic and necrotic cells. Statistical differences between the groups were analyzed by two-way ANOVA (p < 0.01) and Tukey’s post hoc test.

CHO-K1 cells = format: cell-based, Chinese Hamster
Method: Fresh HepG2 and CHO-K1 cells were seeded at the density of 1 × 10^5 cells/mL into 24-well plates (1 mL/per well). The compounds 13 (a–d) were then added to the medium to final concentrations of 500, 1000 and 2000 µM and incubation continued for 3 h or 24 h. DMSO 10% was used as the negative control, and, BaP (80 µM) for HepG2 and MMC (5 µM) for CHO-K1 were the positive controls. After exposure to the compounds, the cells were incubated for more than 24 h under growth conditions before quantification of the micronuclei and cytotoxicity. The cytogenetic studies were carried out in triplicate as described previously (see [51]). In order to determine the mitotic index and the number of cells with micronuclei, the medium was replaced by a cold methanol-glacial acetic acid (3:1) fixative for 30 min, and the cells then rinsed with distilled water for 2 min and air dried. The fixed cells were stained with 4,6-diamidino-2-phenylindole (DAPI) ([…]) dissolved in McIlvaine buffer (0.1 M citric acid plus 0.2 M Na2HPO4, pH 7.0) for 60 min, washed with McIlvaine buffer for 5 min, briefly rinsed with distilled water and mounted in glycerol. To determine the mitotic index and the number of cells with micronuclei, 1000 cells per well (3000 cells per concentration) were analyzed under a fluorescence microscope. The results for micronuclei were presented as the percentage of cells containing micronuclei in the 3000 cells/concentration group analyzed. Cells that glowed brightly and had homogenous nuclei were considered as having normal phenotypic morphology. Apoptotic nuclei were identified by the condensed chromatin at the periphery of the nuclear membrane or by fragmented nuclear body morphology. Necrotic cells presented chromatin forms with irregularly shaped aggregates, a pyknotic nucleus (shrunken and darkly stained) and cell membrane disruption, with cellular debris spilled into the extracellular milieu. Once again, 3000 cells were counted and the percentage of viable cells was evaluated, discounting apoptotic and necrotic cells. Statistical differences between the groups were analyzed by two-way ANOVA (p < 0.01) and Tukey’s post hoc test.

[6] = test system: Salmonella enterica serovar Typhimurium TA98; assay: Salmonella/microsome assay, TA98
Method: as §1, §2

in vitro [7] = conditions: Salmonella enterica serovar Typhimurium, pH 7.4
T. cruzi = assay: Trypanocidal in vitro phenotypic screening, overall outcome; format: cell-based, Trypanosoma cruzi; conditions: summarized outcome
Method: Bloodstream trypomastigote forms (BT) of the Y strain were obtained from infected albino Swiss mice at the peak of parasitemia, isolated by differential centrifugation and resuspended in DMEM to a parasite concentration of 10^7 cells/mL in the presence of 10% of mouse blood. This suspension (100 µL) was added in the same volume of 13 (a–d) and 14 (a–d) previously prepared at twice the desired final concentrations.
Tissue culture-derived trypomastigotes (Tulahuen strain expressing the E. coli β-galactosidase gene) were maintained in L929 cell lines and collected from the supernatant after 96 h of parasite infection, following previously established protocols. Briefly, after 24 h of L929 platting (4 × 10^3 cells/well), the cultures were incubated with trypomastigotes (10:1 parasite/host cell ratio) for 2 h at 37 °C. Then, the cell cultures were rinsed to remove non-internalized parasites and then further incubated for 24 h at 37 °C. Then the infected cultures were followed using two sequential protocols. […] After this period, 50 µL chlorophenol red glycoside (500 µM) in 0.5% Nonidet P40 was added to each well and the plate was incubated for more than 18 h at 37 °C, after which the absorbance was measured at 570 nm. Then, the compounds were next evaluated using dose–response assays in which Tulahuen-infected-L929 cells were exposed to different non-toxic concentrations of each compound (0–50 µM) and then after 96 h of incubation the same procedure was conducted as above reported. Controls with untreated and Bz-treated cells are run in parallel. The results were expressed as the percent difference in the reduction between treated and untreated cells.

## CC(=O)Nc1ccccc1C(F)(F)C(=O)NCC[C@@H]1C[C@H](CC(=O)OC(C)(C)C)OC(C)(C)O1 [Compound 13a, tert-Butyl 2-((4R,6R)-6-(2-(2-(2-acetamidophenyl)-2,2-difluoroacetamido)ethyl)-2,2-dimethyl-1,3-dioxan-4-yl)acetate]
[1]
  Bacterial Mutagenicity: Yes
In vitro [2]
  CC50 at 96 h: 112 ± 28.3 µM
[3]; LC50 (HepG2)/EC50 (P. falciparum)
  SI: Inactive
[3]; Plasmodium falciparum, W2, 24 h, P. falciparum W2 clone, 24 h at 37 °C, read-out: EC50
  EC50: > 62 µM
[3]; summarized outcome
  Antiplasmodial Activity: No
[4]; +S9, 3 µM
  revertant His+ colonies TA97: 214 ± 21
[4]; +S9, 15 µM
  revertant His+ colonies TA97: 217 ± 9
[4]; +S9, 30 µM
  revertant His+ colonies TA97: 235 ± 23
[4]; +S9, 150 µM
  revertant His+ colonies TA97: 237 ± 26
[4]; +S9, 300 µM
  revertant His+ colonies TA97: 237 ± 4
[4]; +S9, 1500 µM
  revertant His+ colonies TA97: 290 ± 28
[4]; −S9, 3 µM
  revertant His+ colonies TA97: 78 ± 6
[4]; −S9, 15 µM
  revertant His+ colonies TA97: 82 ± 8
[4]; −S9, 30 µM
  revertant His+ colonies TA97: 79 ± 8
[4]; −S9, 150 µM
  revertant His+ colonies TA97: 69 ± 10
[4]; −S9, 300 µM
  revertant His+ colonies TA97: 80 ± 11
[4]; −S9, 1500 µM
  revertant His+ colonies TA97: 90 ± 9
[5]
  Mammalian Cell Genotoxicity: Yes
CHO-K1 cells
  micronuclei formation (genotoxicity): genotoxic
[6]; +S9, 3 µM
  revertant His+ colonies TA98: 25 ± 8
[6]; +S9, 15 µM
  revertant His+ colonies TA98: 25 ± 4
[6]; +S9, 30 µM
  revertant His+ colonies TA98: 26 ± 5
[6]; +S9, 150 µM
  revertant His+ colonies TA98: 27 ± 1
[6]; +S9, 300 µM
  revertant His+ colonies TA98: 33 ± 1
[6]; +S9, 1500 µM
  revertant His+ colonies TA98: 36 ± 3
[6]; −S9, 3 µM
  revertant His+ colonies TA98: 24 ± 3
[6]; −S9, 15 µM
  revertant His+ colonies TA98: 29 ± 6
[6]; −S9, 30 µM
  revertant His+ colonies TA98: 31 ± 8
[6]; −S9, 150 µM
  revertant His+ colonies TA98: 32 ± 3
[6]; −S9, 300 µM
  revertant His+ colonies TA98: 52 ± 4
[6]; −S9, 1500 µM
  revertant His+ colonies TA98: 61 ± 5
[6]; −S9, at concentrations above 300 µM
  mutagenicity to TA98: significant mutagenicity; also recorded: enhanced the number of revertants
In vitro [7]
  CC50: 1480 ± 56.1 µM
T. cruzi
  Trypanocidal Activity: No
